ChEMBL document CHEMBL1201862, “PubChem BioAssay data set” (2004)
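Five concentrations, 48 hours, 96-well plates. GI50 is the concentration that inhibits growth by half.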 Calls of active or inactive are those of the source. No stated cut-off is given here; in the data, active = GI50 up to about 1.1 µM and inactive = higher.

Columns and labels:
Test in all cases: DTP human tumour cell line panel, 48 h
[1] = system: A549
[2] = system: HL-60
[3] = system: K562
[4] = system: KM-20L2
[5] = system: LOX IMVI
[6] = system: Malme-3M
[7] = system: NCI-H226
[8] = system: NCI-H522
[9] = system: OVCAR-3
[10] = system: OVCAR-5
[11] = system: OVCAR-8
[12] = system: SF-295
[13] = system: SK-MEL-28
[14] = system: SK-MEL-2
[15] = system: SK-MEL-5
[16] = system: SW-620
[17] = system: UO-31
[18] = system: DU-145
[19] = system: MCF7
[20] = system: NCI/ADR-RES

Measured: GI50

COc1ccc(OC)c2c(C(=O)O)c(Cc3ccccc3)ccc12
inactive: [1] > 100 µM | [2] > 100 µM | [3] > 100 µM | [4] > 100 µM | [5] > 100 µM | [6] > 100 µM | [7] > 100 µM | [8] > 100 µM | [9] > 100 µM | [10] > 100 µM | [11] > 100 µM | [12] > 100 µM | [13] > 100 µM | [14] > 100 µM | [15] > 100 µM | [16] > 100 µM | [17] > 100 µM

O=S(=O)(SCc1ccccc1)C(c1ccccc1)c1ccccc1
inactive: [1] 32 µM | [2] 5.52 µM | [3] 6.67 µM | [4] 20.6 µM | [5] 30.4 µM | [6] 36.1 µM | [7] 22.5 µM | [8] 26.6 µM | [9] 29.1 µM | [10] > 100 µM | [11] 19.8 µM | [12] 44.1 µM | [13] 48.3 µM | [14] 39.1 µM | [15] 22.5 µM | [16] 7.4 µM | [17] 64.6 µM

C/C(CC(=O)NCCc1ccccc1)=N\NC(=O)C[n+]1ccccc1
inactive: [1] > 100 µM | [2] > 100 µM | [3] > 100 µM | [4] > 100 µM | [5] > 100 µM | [6] > 100 µM | [7] > 100 µM | [8] > 100 µM | [9] > 100 µM | [10] > 100 µM | [11] > 100 µM | [12] > 100 µM | [13] > 100 µM | [14] > 100 µM | [15] > 100 µM | [16] > 100 µM | [17] > 100 µM

COC1C=C(Nc2cccc(Cl)c2)C(=O)C1 (stereo not given)
inactive: [1] 18.5 µM | [2] 36 µM | [3] 41.6 µM | [4] 55.5 µM | [5] > 100 µM | [6] > 100 µM | [7] 36.4 µM | [8] 24.9 µM | [9] 65.3 µM | [10] 47.4 µM | [11] 96.2 µM | [12] 54 µM | [13] > 100 µM | [14] 71 µM | [15] 83 µM | [16] 53.2 µM | [17] 41.2 µM

CC(=O)NNc1nc(C)c(C(=O)NNC(=O)C(=O)Nc2nc3ccc([N+](=O)[O-])cc3s2)s1
inactive: [1] 67.1 µM | [18] 70.1 µM | [2] 36.8 µM | [3] 25 µM | [4] > 100 µM | [5] 54.1 µM | [19] 31 µM | [6] 35 µM | [7] 80 µM | [8] 18.7 µM | [20] 53.5 µM | [9] 15.3 µM | [10] 82.8 µM | [11] 52.7 µM | [12] 60.8 µM | [13] 65.2 µM | [14] 56.9 µM | [15] 42.6 µM | [16] > 65.9 µM | [17] 33.2 µM

[O-][S+]1c2ccccc2NC(c2ccc3ccccc3c2)CC1c1ccccc1 (stereo not given)
inactive: [1] 30.1 µM | [2] 24.3 µM | [3] 16 µM | [4] 22.9 µM | [5] 17.9 µM | [6] 61.5 µM | [7] 20.6 µM | [8] 17.8 µM | [9] 15.6 µM | [10] 42 µM | [11] 21.2 µM | [12] 19.1 µM | [13] 35.2 µM | [14] 92.7 µM | [15] 17.5 µM | [16] 20 µM | [17] 18 µM
